Values of other authors as cited in patent publication US20050287096A1, “Method for improving the appearance of skin” (priority 2004, published 2005).

System: knee abrasions
Settings: ointment containing 5% sucralfate, topical

Q: With sucralfate as the substance, how does the “stopping of fusion from the abrasions” value (knee abrasions caused by falls during a basketball game) read?
A: Its value is “fusion to be stopped after twenty four hours”.

Q: What about the “healing of the abrasions” value (period after fusion stopped) of the same substance?
A: The value was “good healing occurring over a three day period”.
